Assay results: article PMC6429214, “Design, Synthesis and Biological Evaluation of Isoxazole-Based CK1 Inhibitors Modified with Chiral Pyrrolidine Scaffolds” (Molecules, 2019)

Assays:
MCF-7 cells = assay: MTT cell viability assay MCF-7; format: cell-based, human; conditions: Homo sapiens, MCF7, 48 h, mean ± SD
Method: (§1) The human colon adenocarcinoma cell line HT-29 was grown in McCoy’s 5A medium, whereas MCF7 cells were grown in DMEM medium. All media were supplemented with 10% fetal calf serum (FCS), 100 units/mL penicillin, 100 µg/mL streptomycin and 2 mM glutamine. All cells were grown at 37 °C in a humidified 5% carbon dioxide atmosphere.
(§2) In order to analyze the effects of selected inhibitors on the cell viability of HT-29 and MCF7 cells, MTT assays were performed. 1 × 10^4 cells/well were seeded in 96-well cell culture plates. After 24 h cells were treated with increasing concentrations of the indicated inhibitor compounds, with untreated and DMSO-treated cells as control. After an incubation period of 48 h, 10 µL of MTT solution (5 mg/mL in PBS) were added and cells were incubated for 4 h. MTT-containing medium was carefully removed and 100 µL acidic isopropanol (0.04 N HCl in isopropanol) per well were added. To dissolve formazan crystals, plates were shaken for 30 min on an orbital shaker in the dark. Finally, dissolved crystals were measured spectrophotometrically at 570 nm. All experiments were performed in triplicate with four technical replicates per assay. Results were normalized considering the mean optical density value of control wells as 100%. GraphPad Prism 6 software (San Diego, CA, USA) was used to calculate EC50 values.

HT-29 cells = assay: MTT cell viability assay HT-29; format: cell-based, human; conditions: Homo sapiens, HT-29, 48 h, mean ± SD
Method: as §1, §2

[1] = LC-MS of aqueous solutions with and without PEG; format: physicochemical; conditions: LC-MS over 7 days, not in solutions without PEG
Text: Since all analytical data for the originally employed inhibitors was consistent with the given structures, we postulate that the incorporation of an additional methylene group occurred via spontaneous Pictet-Spengler cyclization during crystallization. In line with this notion, PEG, which has been used in our soaking solutions, is known to generate formaldehyde traces that have been shown in the past to affect the derivatization of both, proteins and ligands. To further corroborate this hypothesis, we examined whether simple exposure of 29d/e to formaldehyde would give rise to the same Pictet-Spengler products 31a/b (Scheme 5). Indeed, when compounds 29d/e were treated with formaldehyde at room temperature 31a/b were formed readily and the obtained spectroscopic data was consistent with the predicted Pictet-Spengler products. In addition, aqueous solutions of 29d and 29e with and without PEG were analyzed by liquid chromatography-mass spectrometry (LC-MS) over a period of 7 days.
LC-MS was performed with a Bruker Esquire ~LC ion trap mass spectrometer (Bremen, Germany) in the positive ion mode (dry gas 9 L/min, nebulizer 35 psi, drying temperature 350 °C) after chromatographic separation using an Agilent 1100 HPLC system (Waldbronn, Germany) with a RP-8 column (Agilent Eclipse XDB-C8, 150 × 4.6 mm, 5 μm) and a 0.1% acetic acid/acetonitrile gradient.

AKT3 aa106-479 = target: T1, AKT3 aa106-479 (Homo sapiens, UniProt Q9Y243); assay: 33PanQinase panel; format: biochemical; conditions: AKT3 aa106-479, 1 µM; read-out: Residual Activity (%)
T1 construct: purchased ProQinase
T1 sequence (Q9Y243 106-479 limits assumed): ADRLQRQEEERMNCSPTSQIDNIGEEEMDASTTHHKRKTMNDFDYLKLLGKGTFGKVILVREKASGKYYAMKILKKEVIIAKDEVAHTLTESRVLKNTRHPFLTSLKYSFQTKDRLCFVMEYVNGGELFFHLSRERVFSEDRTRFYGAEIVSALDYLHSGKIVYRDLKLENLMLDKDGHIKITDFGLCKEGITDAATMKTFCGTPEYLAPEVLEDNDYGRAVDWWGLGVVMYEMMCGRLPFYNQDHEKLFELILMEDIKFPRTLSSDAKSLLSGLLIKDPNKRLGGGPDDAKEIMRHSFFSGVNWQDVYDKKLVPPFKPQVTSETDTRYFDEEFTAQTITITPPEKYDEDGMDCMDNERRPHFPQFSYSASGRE
In short: (§3)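 Percent residual kinase activity versus DMSO control, from a radiometric 33PanQinase assay at 1 µM compound.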

CDK4/CycD3 = target: T2, CDK4/CycD3 (Homo sapiens, UniProt P11802); assay: 33PanQinase panel; format: biochemical; conditions: CDK4/CycD3, 1 µM; read-out: Residual Activity (%)
T2 construct: purchased ProQinase
T2 sequence (P11802 whole entry): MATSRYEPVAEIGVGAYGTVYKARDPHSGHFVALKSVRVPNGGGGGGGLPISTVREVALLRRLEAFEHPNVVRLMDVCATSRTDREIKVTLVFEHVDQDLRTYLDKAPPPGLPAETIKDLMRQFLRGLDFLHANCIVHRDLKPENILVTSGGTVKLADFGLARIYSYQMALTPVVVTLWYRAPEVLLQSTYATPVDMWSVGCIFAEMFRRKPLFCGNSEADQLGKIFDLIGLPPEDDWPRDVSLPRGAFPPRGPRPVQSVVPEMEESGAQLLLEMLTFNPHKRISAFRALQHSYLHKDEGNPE
T2 sequence (P30281 whole entry partner): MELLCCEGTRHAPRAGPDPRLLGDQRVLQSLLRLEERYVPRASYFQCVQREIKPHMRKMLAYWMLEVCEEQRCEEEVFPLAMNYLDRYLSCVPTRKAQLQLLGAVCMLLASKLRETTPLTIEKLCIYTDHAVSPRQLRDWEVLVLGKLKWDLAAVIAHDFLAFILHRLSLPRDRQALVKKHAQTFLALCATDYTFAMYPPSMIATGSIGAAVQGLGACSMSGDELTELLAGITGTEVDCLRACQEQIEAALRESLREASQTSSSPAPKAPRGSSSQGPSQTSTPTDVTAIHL
In short: as §3

EPHA7 = target: T3, EPHA7 (Homo sapiens, UniProt Q15375); assay: 33PanQinase panel; format: biochemical; conditions: EPHA7, 1 µM; read-out: Residual Activity (%)
T3 construct: purchased ProQinase
T3 sequence (Q15375 28-998): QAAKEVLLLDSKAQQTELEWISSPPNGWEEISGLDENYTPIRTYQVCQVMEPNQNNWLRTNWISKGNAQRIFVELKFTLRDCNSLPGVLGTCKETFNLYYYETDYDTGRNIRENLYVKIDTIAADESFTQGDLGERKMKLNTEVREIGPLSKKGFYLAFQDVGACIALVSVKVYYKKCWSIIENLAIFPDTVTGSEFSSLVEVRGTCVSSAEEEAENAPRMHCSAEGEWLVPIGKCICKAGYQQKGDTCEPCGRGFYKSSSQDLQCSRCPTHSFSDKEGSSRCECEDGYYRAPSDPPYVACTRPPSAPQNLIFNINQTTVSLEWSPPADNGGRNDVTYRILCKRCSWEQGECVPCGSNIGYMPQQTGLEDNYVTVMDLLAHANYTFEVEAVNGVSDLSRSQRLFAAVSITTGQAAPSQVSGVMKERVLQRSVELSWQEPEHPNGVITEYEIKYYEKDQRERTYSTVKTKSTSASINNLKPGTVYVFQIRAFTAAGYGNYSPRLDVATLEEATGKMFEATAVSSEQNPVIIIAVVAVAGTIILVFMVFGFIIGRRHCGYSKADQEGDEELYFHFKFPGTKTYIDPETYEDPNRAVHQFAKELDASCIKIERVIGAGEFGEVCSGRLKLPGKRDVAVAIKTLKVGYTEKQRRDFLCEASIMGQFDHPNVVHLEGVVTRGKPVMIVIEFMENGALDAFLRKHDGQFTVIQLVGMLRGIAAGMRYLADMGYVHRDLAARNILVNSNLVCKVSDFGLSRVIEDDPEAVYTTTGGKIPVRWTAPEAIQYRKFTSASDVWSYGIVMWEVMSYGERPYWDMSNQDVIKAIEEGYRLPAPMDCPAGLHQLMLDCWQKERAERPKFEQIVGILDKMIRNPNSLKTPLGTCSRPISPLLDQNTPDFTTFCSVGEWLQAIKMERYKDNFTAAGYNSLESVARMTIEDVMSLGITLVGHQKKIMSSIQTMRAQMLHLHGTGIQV
In short: as §3

LCK = target: T4, LCK (Homo sapiens, UniProt P06239); assay: 33PanQinase panel; format: biochemical; conditions: read-out: Residual Activity (%)
T4 construct: purchased ProQinase
T4 sequence (P06239 whole entry): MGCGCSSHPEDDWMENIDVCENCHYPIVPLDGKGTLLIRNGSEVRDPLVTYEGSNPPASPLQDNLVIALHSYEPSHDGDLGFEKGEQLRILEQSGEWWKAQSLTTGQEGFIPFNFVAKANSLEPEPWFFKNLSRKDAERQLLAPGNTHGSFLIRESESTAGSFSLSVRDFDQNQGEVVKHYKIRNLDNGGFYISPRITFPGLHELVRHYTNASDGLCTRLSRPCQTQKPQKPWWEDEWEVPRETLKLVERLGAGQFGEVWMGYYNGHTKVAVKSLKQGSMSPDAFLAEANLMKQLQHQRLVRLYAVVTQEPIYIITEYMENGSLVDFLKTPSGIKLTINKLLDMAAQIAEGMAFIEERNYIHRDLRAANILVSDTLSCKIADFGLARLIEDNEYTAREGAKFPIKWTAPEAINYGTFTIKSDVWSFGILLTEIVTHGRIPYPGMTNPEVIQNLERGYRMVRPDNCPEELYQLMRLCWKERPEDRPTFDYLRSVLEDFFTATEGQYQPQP
In short: as §3

PRKX = target: T5, PRKX (Homo sapiens, UniProt P51817); assay: 33PanQinase panel; format: biochemical; conditions: read-out: Residual Activity (%)
T5 construct: purchased ProQinase
T5 sequence (P51817 whole entry): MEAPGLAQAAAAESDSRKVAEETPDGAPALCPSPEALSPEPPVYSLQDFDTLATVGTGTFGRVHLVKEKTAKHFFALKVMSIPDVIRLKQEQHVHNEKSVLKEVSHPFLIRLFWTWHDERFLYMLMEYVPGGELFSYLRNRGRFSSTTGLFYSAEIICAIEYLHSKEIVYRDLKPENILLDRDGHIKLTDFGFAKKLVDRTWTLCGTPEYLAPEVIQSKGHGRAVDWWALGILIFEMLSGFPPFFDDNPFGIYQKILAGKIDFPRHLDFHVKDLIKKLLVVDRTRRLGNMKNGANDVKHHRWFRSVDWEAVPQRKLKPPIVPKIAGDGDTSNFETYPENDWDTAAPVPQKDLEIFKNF
In short: as §3

RPS6KA2 = target: T6, RPS6KA2 (Homo sapiens, UniProt Q15349); assay: 33PanQinase panel; format: biochemical; conditions: RPS6KA2, 1 µM; read-out: Residual Activity (%)
T6 construct: purchased ProQinase
T6 sequence (Q15349 whole entry): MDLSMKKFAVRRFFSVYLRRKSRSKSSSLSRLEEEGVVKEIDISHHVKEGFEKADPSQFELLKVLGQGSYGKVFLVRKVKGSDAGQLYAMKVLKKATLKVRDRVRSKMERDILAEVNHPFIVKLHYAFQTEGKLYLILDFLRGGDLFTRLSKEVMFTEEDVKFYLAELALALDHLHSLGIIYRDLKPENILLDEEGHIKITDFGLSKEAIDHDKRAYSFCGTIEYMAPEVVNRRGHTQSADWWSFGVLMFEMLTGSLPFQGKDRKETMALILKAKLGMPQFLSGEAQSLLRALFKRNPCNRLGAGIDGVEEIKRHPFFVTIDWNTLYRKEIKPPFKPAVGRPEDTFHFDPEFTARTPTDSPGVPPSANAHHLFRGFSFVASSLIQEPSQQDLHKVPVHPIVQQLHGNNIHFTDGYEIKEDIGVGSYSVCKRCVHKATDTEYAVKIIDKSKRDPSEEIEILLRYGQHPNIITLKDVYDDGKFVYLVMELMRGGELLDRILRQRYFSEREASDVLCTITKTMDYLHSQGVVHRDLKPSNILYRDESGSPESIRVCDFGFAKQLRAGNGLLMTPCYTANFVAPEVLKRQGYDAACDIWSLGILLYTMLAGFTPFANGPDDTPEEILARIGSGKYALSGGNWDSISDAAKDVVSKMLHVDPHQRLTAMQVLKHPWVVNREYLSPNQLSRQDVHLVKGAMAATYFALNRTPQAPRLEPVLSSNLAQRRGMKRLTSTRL
In short: as §3

COc1ccc(-c2cc(C(=O)Nc3cc(-c4c(-c5ccc(F)cc5)noc4C(C)C)ccn3)n(CC3NCC(O)C3O)c2)cc1 (stereo not drawn) [29d]
viability at 5 µM (MCF-7 cells; 5 µM): 100 ± 16% | viability at 10 µM (MCF-7 cells; 10 µM): 76 ± 19% | viability at 20 µM (MCF-7 cells; 20 µM): 5.6 ± 1.5% | EC50 (MCF-7 cells): 10 ± 2 µM | viability at 5 µM (HT-29 cells; 5 µM): 76 ± 13% | viability at 10 µM (HT-29 cells; 10 µM): 51 ± 8% | viability at 20 µM (HT-29 cells; 20 µM): 14 ± 2% | EC50 (HT-29 cells): 8 ± 1.7 µM | formation of Pictet-Spengler products in aqueous solution with PEG [1]: significant product formation | remaining activity at 1 µM (AKT3 aa106-479): 95% | remaining activity at 1 µM (CDK4/CycD3): 98% | remaining activity at 1 µM (EPHA7): 100% | remaining activity at 1 µM (LCK): 96% | remaining activity at 1 µM (PRKX): 92% | remaining activity at 1 µM (RPS6KA2): 93%
